Inconclusive results and toxic doses are left out. No stated cut-off is given here; in the data, active means T/C of 150% or more; inactive means T/C below 125%.
Test system: L1210 leukemia ip in BDF1 mice, survival T/C
Experiment: NCI In Vivo Anticancer Drug Screen. Data for tumor model L1210 Leukemia (intraperitoneal) in B6D2F1 (BDF1) mice
Conditions: endpoint: mean survival time, higher = longer survival
Outline: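 Ratio derived from survival: compound-dosed mice over vehicle-dosed mice, all bearing a transplantable tumor.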

[1] = dose: 100.0 mg/kg/injection, schedule: Q01DX009 (ip), vehicle: Klucel (hydroxypropylcellulose) (HPC)
[2] = dose: 100.0 mg/kg/injection, schedule: Q04DX003 (ip), vehicle: Klucel (hydroxypropylcellulose) (HPC)
[3] = dose: 200.0 mg/kg/injection, schedule: Q01DX009 (ip), vehicle: Klucel (hydroxypropylcellulose) (HPC)
[4] = dose: 200.0 mg/kg/injection, schedule: Q04DX003 (ip), vehicle: Klucel (hydroxypropylcellulose) (HPC)
[5] = dose: 400.0 mg/kg/injection, schedule: Q01DX009 (ip), vehicle: Klucel (hydroxypropylcellulose) (HPC)
[6] = dose: 400.0 mg/kg/injection, schedule: Q04DX003 (ip), vehicle: Klucel (hydroxypropylcellulose) (HPC)
[7] = dose: 100.0 mg/kg/injection, schedule: Q01DX001 (ip), vehicle: carboxymethylcellulose (CMC)
[8] = dose: 200.0 mg/kg/injection, schedule: Q01DX001 (ip), vehicle: carboxymethylcellulose (CMC)

Measured: T/C

S=C1SC2(CCCCCC2)NC2=C1CCCCC2
inactive: dose: 100.0 mg/kg/injection, schedule: Q04DX002 (ip), vehicle: saline with Tween-80 103 % of control | dose: 200.0 mg/kg/injection, schedule: Q04DX002 (ip), vehicle: saline with Tween-80 89 % of control | dose: 400.0 mg/kg/injection, schedule: Q04DX002 (ip), vehicle: saline with Tween-80 89 % of control

C[Si](C)(C)c1c(F)c(F)cc(F)c1F
inactive: [1] 98 % of control | [2] 98 % of control | [3] 112 % of control | [4] 95 % of control | [5] 94 % of control | [6] 97 % of control

COC(=O)C1CC=CC(C)C1C(=O)OC (stereo unspecified)
inactive: [1] 105 % of control | [3] 103 % of control | [5] 100 % of control

COC(=O)C1=C(C(=O)OC)C(C(=O)OC)N2C=CC=CC2=C1C(=O)OC (stereo unspecified)
inactive: dose: 50.0 mg/kg/injection, schedule: Q01DX001 (ip), vehicle: carboxymethylcellulose (CMC) 94 % of control | [7] 89 % of control | [8] 94 % of control

COc1cc(N(C)C)ccc1C=O
inactive: dose: 50.0 mg/kg/injection, schedule: Q01DX009 (ip), vehicle: Klucel (hydroxypropylcellulose) (HPC) 93 % of control | [1] 101 % of control | [2] 100 % of control | [3] 105 % of control | [4] 101 % of control | [5] 105 % of control | [6] 97 % of control

O=C(O)CCC1(CCC(=O)O)OCCO1.[Ag]
inactive: dose: 9.38 mg/kg/injection, schedule: Q01DX001 (ip), vehicle: other 97 % of control | dose: 18.75 mg/kg/injection, schedule: Q01DX001 (ip), vehicle: other 97 % of control | dose: 37.5 mg/kg/injection, schedule: Q01DX001 (ip), vehicle: other 100 % of control

CCNC(C)(C)C(SS(=O)(=O)O)c1cccs1 (stereo unspecified)
inactive: dose: 100.0 mg/kg/injection, schedule: Q04DX003 (ip), vehicle: water 109 % of control | dose: 200.0 mg/kg/injection, schedule: Q04DX003 (ip), vehicle: water 96 % of control | dose: 400.0 mg/kg/injection, schedule: Q04DX003 (ip), vehicle: water 94 % of control

Nc1nc(N)c2nc(CNc3ccc(CC(=O)NC(CC(=O)O)C(=O)O)cc3)cnc2n1 (stereo unspecified)
inactive: dose: 25.0 mg/kg/injection, schedule: Q01DX009 (ip), vehicle: sodium bicarbonate 104 % of control | dose: 50.0 mg/kg/injection, schedule: Q01DX009 (ip), vehicle: sodium bicarbonate 106 % of control | dose: 100.0 mg/kg/injection, schedule: Q01DX009 (ip), vehicle: sodium bicarbonate 108 % of control

Cc1cc(C)c(-c2c(Br)c(OC(=O)c3ccc([N+](=O)[O-])cc3)c(-c3c(C)cc(C)c(Br)c3C)c(Br)c2OC(=O)c2ccc([N+](=O)[O-])cc2)c(C)c1Br
inactive: [1] 101 % of control | [2] 104 % of control | [3] 97 % of control | [4] 96 % of control | [5] 100 % of control | [6] 96 % of control

O=C(O)CCC(NC(=O)c1ccccc1C(=O)O)C(=O)O (stereo unspecified)
inactive: [7] 94 % of control | [8] 94 % of control | dose: 400.0 mg/kg/injection, schedule: Q01DX001 (ip), vehicle: carboxymethylcellulose (CMC) 90 % of control

C=C[C@H]1CN2CC[C@H]1C[C@@H]2[C@@H](O)c1ccnc2ccccc12
inactive: [1] 101 % of control | dose: 100.0 mg/kg/injection, schedule: Q04DX002 (ip), vehicle: Klucel (hydroxypropylcellulose) (HPC) 103 % of control | [3] 93 % of control | dose: 200.0 mg/kg/injection, schedule: Q04DX002 (ip), vehicle: Klucel (hydroxypropylcellulose) (HPC) 103 % of control | [5] 93 % of control | dose: 400.0 mg/kg/injection, schedule: Q04DX002 (ip), vehicle: Klucel (hydroxypropylcellulose) (HPC) 96 % of control

— PubChem BioAssay AID248 (DTP/NCI, 2004)
